According to ChEMBL document CHEMBL2016551, “Synthesis and SAR studies of novel heteroaryl fused tetracyclic indole-diamide compounds: potent allosteric inhibitors of the hepatitis C virus NS5B polymerase” (Bioorg Med Chem Lett, 2012):
Blank lines part the entries; values can stand above or below the molecule they belong to.

Columns and labels:
[1] = Inhibition of Hepatitis C virus NS5B RNA-dependent RNA polymerase; design: species or system Hepacivirus hominis
[2] = biological target: RNA-directed RNA polymerase (Hepacivirus hominis, UniProt O39930, P495L); test: Inhibition of Hepatitis C virus NS5B RNA-dependent RNA polymerase P495L mutant
Hepatitis C virus [3] = test: Antiviral activity against Hepatitis C virus genotype 1b infected in human HuH7 cells by luciferase reporter gene analysis; assay type: functional, organism-based, Hepacivirus hominis; details: Huh-7
Hepatitis C virus [4] = test: Antiviral activity against Hepatitis C virus genotype 1a infected in human HuH7 cells by luciferase reporter gene analysis; assay type: functional, organism-based, Hepacivirus hominis; details: subtype 1a, Huh-7
[5] = Cytotoxicity against human HuH7 cells; assay type: cell-based; details: Huh-7 cells
[6] = Oral bioavailability in rat; assay type: ADME, organism-based; details: in vivo
[7] = AUC in rat; assay type: ADME, organism-based; details: plasma
[8] = Clearance in rat at 2 mg/kg, iv; assay type: ADME, organism-based; design: dose 2 mg/kg, route intravenous; details: in vivo
[9] = Half life in rat at 2 mg/kg, iv; assay type: ADME, organism-based; design: dose 2 mg/kg, route intravenous; details: in vivo

Sequence of RNA-directed RNA polymerase (O39930 entry or part of it P495L): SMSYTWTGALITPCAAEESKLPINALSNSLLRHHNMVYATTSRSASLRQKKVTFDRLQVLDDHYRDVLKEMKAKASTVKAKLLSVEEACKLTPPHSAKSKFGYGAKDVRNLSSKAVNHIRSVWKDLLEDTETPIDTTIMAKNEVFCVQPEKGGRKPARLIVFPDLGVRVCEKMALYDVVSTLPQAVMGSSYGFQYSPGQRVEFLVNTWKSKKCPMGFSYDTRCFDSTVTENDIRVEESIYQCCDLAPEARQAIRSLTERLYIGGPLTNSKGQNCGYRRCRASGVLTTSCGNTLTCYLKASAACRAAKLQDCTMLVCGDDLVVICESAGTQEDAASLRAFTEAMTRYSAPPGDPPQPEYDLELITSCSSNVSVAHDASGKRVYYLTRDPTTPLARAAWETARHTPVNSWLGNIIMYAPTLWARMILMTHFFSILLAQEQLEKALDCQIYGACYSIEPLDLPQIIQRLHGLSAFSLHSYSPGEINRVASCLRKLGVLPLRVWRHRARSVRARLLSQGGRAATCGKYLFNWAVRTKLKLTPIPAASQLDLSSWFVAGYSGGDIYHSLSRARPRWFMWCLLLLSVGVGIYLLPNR

SMILES: O=C(O)/C=C/c1ccc(NC(=O)C2(NC(=O)c3ccc4c(C5CCCCC5)c5n(c4c3)CCCc3ccccc3-5)CCCC2)cc1
IC50 [1]: 34 nM
IC50 [2]: 3390 nM
EC50 (Hepatitis C virus [3]): 14 nM
EC50 (Hepatitis C virus [4]): 71 nM
CC50 [5]: 30000 nM

SMILES: O=C(O)/C=C/c1ccc(NC(=O)C2(NC(=O)c3ccc4c(C5CCCCC5)c5n(c4c3)CCCc3ocnc3-5)CCCC2)cc1
IC50 [1]: 44 nM
IC50 [2]: 5850 nM
EC50 (Hepatitis C virus [3]): 78 nM
EC50 (Hepatitis C virus [4]): 380 nM

SMILES: O=C(O)/C=C/c1ccc(NC(=O)C2(NC(=O)c3ccc4c(C5CCCCC5)c5n(c4c3)CCCc3occc3-5)CCCC2)cc1
IC50 [1]: 34 nM
IC50 [2]: 3720 nM
EC50 (Hepatitis C virus [3]): < 69 nM

IC50 [1]: 228 nM
EC50 (Hepatitis C virus [3]): 738 nM
EC50 (Hepatitis C virus [4]): 2510 nM
SMILES: O=C(O)/C=C/c1ccc(NC(=O)C2(NC(=O)c3ccc4c(C5CCCCC5)c5n(c4c3)CCCc3nc[nH]c3-5)CCCC2)cc1

SMILES: Cc1nc2c(s1)CCCn1c-2c(C2CCCCC2)c2ccc(C(=O)NC3(C(=O)Nc4ccc(/C=C/C(=O)O)cc4)CCCC3)cc21
IC50 [1]: 108 nM
IC50 [2]: 5100 nM
EC50 (Hepatitis C virus [3]): 683 nM
EC50 (Hepatitis C virus [4]): 4190 nM

SMILES: Nc1nc2c(s1)CCCn1c-2c(C2CCCCC2)c2ccc(C(=O)NC3(C(=O)Nc4ccc(/C=C/C(=O)O)cc4)CCCC3)cc21
IC50 [1]: 250 nM
IC50 [2]: 4840 nM
EC50 (Hepatitis C virus [3]): 1810 nM
EC50 (Hepatitis C virus [4]): 3780 nM

SMILES: O=C(O)/C=C/c1ccc(NC(=O)C2(NC(=O)c3ccc4c(C5CCCCC5)c5n(c4c3)CCCc3nccnc3-5)CCCC2)cc1
IC50 [1]: 24 nM
IC50 [2]: 2280 nM
EC50 (Hepatitis C virus [3]): 24 nM
EC50 (Hepatitis C virus [4]): 89 nM

SMILES: O=C(O)/C=C/c1ccc(NC(=O)C2(NC(=O)c3ccc4c(C5CCCCC5)c5n(c4c3)CCCc3ncccc3-5)CCCC2)cc1
IC50 [1]: 30 nM
IC50 [2]: 1730 nM
EC50 (Hepatitis C virus [3]): 9 nM
EC50 (Hepatitis C virus [4]): 35 nM
bioavailability [6]: 4%
AUC [7]: 1.7 µM·h
clearance [8]: 7.2 mL/min/kg
half-life [9]: 1 h
CC50 [5]: 63000 nM

SMILES: O=C(O)/C=C/c1ccc(NC(=O)C2(NC(=O)c3ccc4c(C5CCCCC5)c5n(c4c3)CC(=O)Nc3cccnc3-5)CCCC2)cc1
IC50 [1]: 24 nM
IC50 [2]: 3100 nM
EC50 (Hepatitis C virus [3]): 12 nM
EC50 (Hepatitis C virus [4]): 39 nM
bioavailability [6]: < 1%
clearance [8]: 8.7 mL/min/kg
CC50 [5]: 45000 nM

SMILES: O=C(O)/C=C/c1ccc(NC(=O)C2(NC(=O)c3ccc4c(C5CCCCC5)c5n(c4c3)CCOc3cccnc3-5)CCCC2)cc1
IC50 [1]: 15 nM
IC50 [2]: > 600 nM
EC50 (Hepatitis C virus [3]): 22 nM
EC50 (Hepatitis C virus [4]): 157 nM

SMILES: O=C(O)/C=C/c1ccc(NC(=O)C2(NC(=O)c3ccc4c(C5CCCCC5)c5n(c4c3)CCOc3ncccc3-5)CCCC2)cc1
IC50 [1]: 14 nM
IC50 [2]: 2800 nM
EC50 (Hepatitis C virus [3]): 21 nM
EC50 (Hepatitis C virus [4]): 28 nM
